This passage reports IC50 results from patent US7858786B2, “Pyrimidines and pyrazines useful as modulators of ion channels” (Vertex Pharmaceuticals Incoropated, priority 2005, dated 2010).

For this experiment, the target named is NaV1.8 (Homo sapiens, UniProt Q9Y5Y9). Briefly: Activity against NaV 1.8 channel (NaV inhibition assay). It is filed as cell-based. As for the experimental part:
Compounds of the invention are useful as antagonists of voltage-gated sodium ion channels. Antagonist properties of test compounds were assessed as follows. Cells expressing the NaV of interest were placed into microtiter plates. After an incubation period, the cells were stained with fluorescent dyes sensitive to the transmembrane potential. The test compounds were added to the microtiter plate. The cells were stimulated with either a chemical or electrical means to evoke a NaV dependent membrane potential change from unblocked channels, which was detected and measured with trans-membrane potential-sensitive dyes. Antagonists were detected as a decreased membrane potential response to the stimulus. The optical membrane potential assay utilized voltage-sensitive FRET sensors described by Gonzalez and Tsien (See, Gonzalez, J. E. and R. Y. Tsien (1995) “Voltage sensing by fluorescence resonance energy transfer in single cells” Biophys J 69(4):1272-80, and Gonzalez, J. E. and R. Y. Tsien (1997) “Improved indicators of cell membrane potential that use fluorescence resonance energy transfer” Chem Biol 4(4):269-77) in combination with instrumentation for measuring fluorescence changes such as the Voltage/Ion Probe Reader (VIPRO®) (See, Gonzalez, J. E., K. Oades, et al. (1999) “Cell-based assays and instrumentation for screening ion-channel targets” Drug Discov Today 4(9):431-439).
24 hours before the assay on VIPR, CHO cells endogenously expressing a NaV1.2 type voltage-gated NaV are seeded in 96-well poly-lysine coated plates at 60,000 cells per well. Other subtypes are performed in an analogous mode in a cell line expressing the NaV of interest.
The following is an example of how NaV1.3 inhibition activity is measured using the optical membrane potential method #2. Other subtypes are performed in an analogous mode in a cell line expressing the NaV of interest.
HEK293 cells stably expressing NaV1.3 are plated into 96-well microtiter plates. After an appropriate incubation period, the cells are stained with the voltage sensitive dyes CC2-DMPE/DiSBAC2(3) as follows.
Patch clamp electrophysiology was used to assess the efficacy and selectivity of sodium channel blockers in dorsal root ganglion neurons. Rat neurons were isolated from the dorsal root ganglions and maintained in culture for 2 to 10 days in the presence of NGF (50 ng/ml) (culture media consisted of NeurobasalA supplemented with B27, glutamine and antibiotics). Small diameter neurons (nociceptors, 8-12 μm in diameter) have been visually identified and probed with fine tip glass electrodes connected to an amplifier (Axon Instruments). The “voltage clamp” mode has been used to assess the compound's IC50 holding the cells at −60 mV. In addition, the “current clamp” mode has been employed to test the efficacy of the compounds in blocking action potential generation in response to current injections. The results of these experiments have contributed to the definition of the efficacy profile of the compounds.
TTX-resistant sodium currents were recorded from DRG somata using the whole-cell variation of the patch clamp technique. Recordings were made at room temperature (˜22° C.) with thick walled borosilicate glass electrodes (WPI; resistance 3-4 MΩ) using an Axopatch 200B amplifier (Axon Instruments). After establishing the whole-cell configuration, approximately 15 minutes were allowed for the pipette solution to equilibrate within the cell before beginning recording. Currents were lowpass filtered between 2-5 kHz and digitally sampled at 10 kHz. Series resistance was compensated 60-70% and was monitored continuously throughout the experiment. The liquid junction potential (−7 mV) between the intracellular pipette solution and the external recording solution was not accounted for in the data analysis. Test solutions were applied to the cells with a gravity driven fast perfusion system (SF-77; Warner Instruments). […]

Turning to `CC(C)COC(=O)NC1CCN(c2nccc(-c3ccccc3O)n2)CC1` [Compound 1, [1-[4-(2-hydroxyphenyl)pyrimidin-2-yl]-4-piperidyl]aminoformic acid isobutyl ester], the IC50 (in general, the concentration that gives 50% inhibition) is above 15 µM.

Turning to `O=C(NC1CCN(c2ccnc(-c3ccccc3F)n2)CC1)[C@H]1CCCO1` [Compound 2, N-[1-[2-(2-fluorophenyl)pyrimidin-4-yl]-4-piperidyl]tetrahydrofuran-2-carboxamide], the IC50 is above 15 µM. Under `CC(C)(C)OC(=O)NC1CCN(c2cncc(-c3ccccc3F)n2)CC1` [Compound 3, [1-[6-(2-fluorophenyl)pyrazin-2-yl]-4-piperidyl]aminoformic acid tert-butyl ester] stands below 10 µM; under `CC(C)COC(=O)N1CCN(c2cc(-c3ccccc3C(F)F)ncn2)CC1` [Compound 4, 4-[6-[2-(difluoromethyl)phenyl]pyrimidin-4-yl]piperazine-1-carboxylic acid isobutyl ester], above 15 µM. To `CC(C)C[C@@H](O)C(=O)N1CCN(c2nccc(-c3ccccc3C(F)F)n2)CC1` [Compound 6, 1-[4-[4-[2-(difluoromethyl)phenyl]pyrimidin-2-yl]piperazin-1-yl]-2-hydroxy-4-methyl-pentan-1-one] belongs 10 to 15 µM. Under `CC(C)C(=O)N[C@@H]1CCN(c2cncc(-c3ccccc3F)n2)C1` [Compound 7, N-[1-[6-(2-fluorophenyl)pyrazin-2-yl]pyrrolidin-3-yl]-2-methyl-propanamide] stands above 15 µM. In the case of `CC(C)(C)OC(=O)N[C@@H]1CCN(c2cncc(-c3ccccc3F)n2)C1` [Compound 8, [1-[6-(2-fluorophenyl)pyrazin-2-yl]pyrrolidin-3-yl]aminoformic acid tert-butyl ester], the IC50 was in the range of 10 to 15 µM. To `COCCOC(=O)NC1CCN(c2cncc(-c3ccccc3F)n2)CC1` [Compound 9, [1-[6-(2-fluorophenyl)pyrazin-2-yl]-4-piperidyl]aminoformic acid 2-methoxyethyl ester] belongs below 10 µM; to `CC(C)COC(=O)N1CCN(c2ccnc(-c3ccccc3F)n2)CC1` [Compound 10, 4-[2-(2-fluorophenyl)pyrimidin-4-yl]piperazine-1-carboxylic acid isobutyl ester], above 15 µM; to `COCCOC(=O)N[C@H]1CCN(c2cncc(-c3ccccc3C(F)F)n2)C1` [Compound 11, [1-[6-[2-(difluoromethyl)phenyl]pyrazin-2-yl]pyrrolidin-3-yl]aminoformic acid 2-methoxyethyl ester], above 15 µM. As to `CC(C)C[C@@H](O)C(=O)N1CCN(c2ccnc(-c3ccccc3O)n2)CC1` [Compound 12, 2-hydroxy-1-[4-[2-(2-hydroxyphenyl)pyrimidin-4-yl]piperazin-1-yl]-4-methyl-pentan-1-one], the IC50 is 10 to 15 µM. To `CC(C)COC(=O)NC1CCN(c2ccnc(-c3ccccc3C(F)F)n2)CC1` [Compound 13, [1-[2-[2-(difluoromethyl)phenyl]pyrimidin-4-yl]-4-piperidyl]aminoformic acid isobutyl ester] belongs below 10 µM; to `CC(C)C(=O)N[C@@H]1CCN(c2cncc(-c3ccccc3O)n2)C1` [Compound 14, N-[1-[6-(2-hydroxyphenyl)pyrazin-2-yl]pyrrolidin-3-yl]-2-methyl-propanamide], above 15 µM. Regarding `CC(C)COC(=O)N1CCN(c2cncc(-c3ccccc3C(F)F)n2)CC1` [Compound 15, 4-[6-[2-(difluoromethyl)phenyl]pyrazin-2-yl]piperazine-1-carboxylic acid isobutyl ester], the IC50 was 10 to 15 µM. Turning to `COCCOC(=O)N[C@@H]1CCN(c2cncc(-c3ccccc3O)n2)C1` [Compound 16, [1-[6-(2-hydroxyphenyl)pyrazin-2-yl]pyrrolidin-3-yl]aminoformic acid 2-methoxyethyl ester], the IC50 is above 15 µM. Under `CC(C)COC(=O)NC1CCN(c2cncc(-c3ccccc3O)n2)CC1` [Compound 18, [1-[6-(2-hydroxyphenyl)pyrazin-2-yl]-4-piperidyl]aminoformic acid isobutyl ester] stands below 10 µM; under `COCCOC(=O)NC1CCN(c2cncc(-c3ccccc3C(F)F)n2)CC1` [Compound 19, [1-[6-[2-(difluoromethyl)phenyl]pyrazin-2-yl]-4-piperidyl]aminoformic acid 2-methoxyethyl ester], below 10 µM; under `CC(C)COC(=O)N1CCN(c2cc(-c3ccccc3O)ncn2)CC1` [Compound 20, 4-[6-(2-hydroxyphenyl)pyrimidin-4-yl]piperazine-1-carboxylic acid isobutyl ester], 10 to 15 µM. Under `CC(C)C[C@@H](O)C(=O)N1CCN(c2ccnc(-c3ccccc3C(F)F)n2)CC1` [Compound 21, 1-[4-[2-[2-(difluoromethyl)phenyl]pyrimidin-4-yl]piperazin-1-yl]-2-hydroxy-4-methyl-pentan-1-one] stands above 15 µM. To `CC(C)OC(=O)N[C@@H]1CCN(c2cncc(-c3ccccc3F)n2)C1` [Compound 22, [1-[6-(2-fluorophenyl)pyrazin-2-yl]pyrrolidin-3-yl]aminoformic acid isopropyl ester] belongs above 15 µM. As to `CC(C)COC(=O)N1CCN(c2cc(-c3ccccc3F)ncn2)CC1` [Compound 23, 4-[6-(2-fluorophenyl)pyrimidin-4-yl]piperazine-1-carboxylic acid isobutyl ester], the IC50 was above 15 µM.

Consider `CC(C)COC(=O)N1CCN(c2nccc(-c3ccccc3C(F)F)n2)CC1` [Compound 24, 4-[4-[2-(difluoromethyl)phenyl]pyrimidin-2-yl]piperazine-1-carboxylic acid isobutyl ester], for which the IC50 fell in the range of 10 to 15 µM.

As for `CC(C)COC(=O)N1CCN(c2nccc(-c3ccccc3O)n2)CC1` [Compound 25, 4-[4-(2-hydroxyphenyl)pyrimidin-2-yl]piperazine-1-carboxylic acid isobutyl ester], the IC50 was below 10 µM. To `CC(C)C[C@@H](O)C(=O)N1CCN(c2cc(-c3ccccc3O)ncn2)CC1` [Compound 26, 2-hydroxy-1-[4-[6-(2-hydroxyphenyl)pyrimidin-4-yl]piperazin-1-yl]-4-methyl-pentan-1-one] belongs above 15 µM. Under `COCCOC(=O)N[C@@H]1CCN(c2cncc(-c3ccccc3F)n2)C1` [Compound 27, [1-[6-(2-fluorophenyl)pyrazin-2-yl]pyrrolidin-3-yl]aminoformic acid 2-methoxyethyl ester] stands above 15 µM; under `CC(C)C(=O)N[C@@H]1CCN(c2cncc(-c3ccccc3C(F)F)n2)C1` [Compound 28, N-[1-[6-[2-(difluoromethyl)phenyl]pyrazin-2-yl]pyrrolidin-3-yl]-2-methyl-propanamide], above 15 µM. To `O=C(NC1CCN(c2ccnc(-c3ccccc3O)n2)CC1)[C@H]1CCCO1` [Compound 29, N-[1-[2-(2-hydroxyphenyl)pyrimidin-4-yl]-4-piperidyl]tetrahydrofuran-2-carboxamide] belongs above 15 µM; to `CC(C)COC(=O)NC1CCN(c2nccc(-c3ccccc3C(F)F)n2)CC1` [Compound 31, [1-[4-[2-(difluoromethyl)phenyl]pyrimidin-2-yl]-4-piperidyl]aminoformic acid isobutyl ester], below 10 µM. Take `CC(C)COC(=O)N1CCN(c2ccnc(-c3ccccc3C(F)F)n2)CC1` [Compound 32, 4-[2-[2-(difluoromethyl)phenyl]pyrimidin-4-yl]piperazine-1-carboxylic acid isobutyl ester]: the IC50 was above 15 µM. To `CC(C)COC(=O)N1CCN(c2cncc(-c3ccccc3O)n2)CC1` [Compound 33, 4-[6-(2-hydroxyphenyl)pyrazin-2-yl]piperazine-1-carboxylic acid isobutyl ester] belongs below 10 µM.
